Measurements as given in patent US20080015147A1, “Method for inhibiting neuronal cell death” (priority 2006, published 2008).
“Also recorded” adds a separate entry of the source.

Assays:
Type in all cases: cell-based, mouse
cleaved caspase 3 = experiment: Caspase 3 cleavage by immunoblot; details: 48 hr; any pH condition for TCAP-1
Method: Detection of caspase 3 cleavage was determined at 48 hrs. The samples at each pH and control (see above) were lysed using total protein isolation lysis buffer (described above). An aliquot of 25 μl of each sample was combined with 25 μl of 2×20% sodium dodecyl sulphate (SDS) sample buffer and loaded onto a 4-10% HCL-Tris pre cast polyacrylamide gel (BioRad, Mississauga). The gel was run at 200 v for 35 min and proteins were electrotransfered to a Hybond-C nitrocellulose membrane (Amersham, Baie d'Urfé) for 75 min at 100 v. After transfer, the membrane was washed with 10 ml of PBS with 0.05% Tween 20 (PBST) for 5 min at room temperature (RT) and the membrane was incubated in 10 ml of PBST-milk for one hour at RT followed by 3 times for 5 min washes with 10 ml of PBST. The membrane was then incubated with cleaved caspase 3 primary antibody (Cell Signaling Technology, Beverly) at a titre of 1:500 in 6 ml of PBST-milk with gentle agitation overnight at 4° C. The membranes were washed 3 times for 5 min with 10 ml of PBST followed by membrane incubation with anti-rabbit horseradish peroxidase (HRP)-conjugated secondary antibody (Amersham, Baie d'Urfé) at 1:3000 in 6 ml of PBST-milk with gentle agitation for 1 hr at RT. […]

Phospho-Akt = Phospho-Akt western blot; details: all pH treatments; 48 hrs
Method: (§1) Western blots using Akt and phosphorylated Akt (P-Akt) primary antibodies were conducted on all conditions of the cultured N38 cells to determine whether TCAP was preventing cell death by phosphorylation. The same western blot procedure outlined above was repeated with an Akt primary antibody (Cell Signalling, Beverly) at a titer of 1:500, followed by membrane incubation with anti-rabbit HRP-conjugated secondary antibody (Amersham, Baie d'Urfé) at 1:3000, followed by exposure on Kodak X-OMAT Blue film (Perkin Elmer Canada Inc, Vaudreuil-Dorion) for 30 min. Phospho Akt expression at 48 hrs was determined using the method described above with a PAkt primary antibody (Cell Signalling 9271) at 1:1000 followed by membrane incubation with anti-rabbit HRP-conjugated secondary antibody (Amersham, Baie d'Urfé) at 1:2000 followed by exposure on Kodak X-OMAT Blue film (Perkin Elmer Canada Inc, Vaudreuil-Dorion) overnight. Cultured N38 cells were serum-starved for 48 hours in order to induce phosphorylation and following the same protocol above were loaded as a control. Total optical density of the blots, were quantified using LabWorks 4.0 Image Acquisition and Analysis Software from Ultra-Violet Products Ltd. (UVP).

N38 cells = experiment: Cell proliferation by direct hemocytometer counts; details: for total cell numbers relative to vehicle: 48 hrs, 2×10^−7 M
Method: At 24 and 48 hrs, the medium was replaced with medium buffered at pH 6.8, 7.4, 8.0 or 8.4. Half of the cell groups received (2×10^−7 M) TCAP-1, whereas the other half received phosphate buffered saline (PBS) pH 7.4 containing 8 g NaCl, 0.2 g KCl, 1.4 g Na2HPO4, 0.2 g KH2PO4 in. 800 mL ddH2O. For all groups, 4 replicates were run. Digital pictures were taken at 24, 48 and 72 hrs using an Olympus IX&1 inverted microscope at a magnification of 200× and analyzed using LabWorks 4.0 Image Acquisition and Analysis software (UltraViolet Products Ltd).
The effect of TCAP-1 on cell proliferation at each pH was examined by direct counts using a hemocytometer and indirectly by assessing mitochondrial activity using a colorimetric MTT (3-[4,5-dimethylthiazol-2-yl]-2,5-diphenyl tetrazolium bromide) assay on cultured N38 cells. For hemocytometer counts, the cultures were incubated for 24 and 48 hrs. The cells were suspended using 1 ml of 0.25% Trypsin with EDTA (Gibco-Invitrogen, Burlington, Canada), centrifuged at 1600 RPM for 4 min, and resuspended with PBS. The cells in 50 μl aliquots were vortexed and counted on a hemocytometer.

[1] = tested on: cells treated with 50 μM H2O2; experiment: H2O2 toxicity MTT assay
Akt = Akt western blot; details: all pH treatments; 48 hrs
Method: as §1

Substance: teneurin C-terminus associated peptide [TCAP-1]
- caspase 3 cleavage product (17/19 kDa) on western blot (cleaved caspase 3): could not be observed
- Akt phosphorylation (serine 473) on western blot (Phospho-Akt): no bands in any samples; also recorded: no indication of AKT phosphorylation
- total number of cells vs vehicle (N38 cells; 24 hrs, any pH condition): no significant differences in the total number of cells
- total cell numbers relative to vehicle (N38 cells; pH 6.8): increased the number of cells
- total cell numbers relative to vehicle (N38 cells; pH 6.8, listed as TCAP): inhibited the decrease in total cell numbers
- total cell numbers relative to vehicle (N38 cells; pH 8.0): increased the number of cells
- total cell numbers relative to vehicle (N38 cells; pH 8.0, listed as TCAP): inhibited the decrease in total cell numbers
- total cell numbers relative to vehicle (N38 cells; pH 8.4): increased the number of cells
- total cell numbers relative to vehicle (N38 cells; pH 8.4, listed as TCAP): inhibited the decrease in total cell numbers
- mitochondrial (MTT) activity vs vehicle ([1]; 0 hours): no effect
- MTT activity relative to vehicle ([1]; 6 to 48 hours): significant increase in MTT activity
- mitochondrial (MTT) activity vs vehicle ([1]; 6 hours, p<0.001): significantly increased mitochondrial activity
- mitochondrial (MTT) activity vs vehicle ([1]; 12 hours, p<0.001): significantly increased mitochondrial activity
- mitochondrial (MTT) activity vs vehicle ([1]; 24 hours, p<0.05): less significant effect
- mitochondrial (MTT) activity vs vehicle ([1]; 48 hours, p<0.001): significantly increased mitochondrial activity
- endogenous Akt on western blot, vehicle vs TCAP (Akt): no difference in endogenous Akt
